According to US5593984A, “Cephalosporin derivatives” (Yuhan Corporation, priority 1992, dated 1997):
Converted amounts (≈) assume the structure as drawn.

Columns and labels:
Format in all cases: cell-based
Ent. aerogenes IFO 12979 = assay: MIC by agar dilution, Ent. aerogenes IFO 12979; details: Klebsiella aerogenes, IFO12979, 17 h, Mueller-Hinton agar, read-out: Minimal Inhibitory Concentration (MIC)
Procedure: (§1) These MIC values were determined by agar dilution method: that is, two-fold dilutions of each of the test compounds were made and dispersed in a Mueller-Hinton agar medium; standard test strain which had the 10^6 CFU (Colony Forming Unit) per ml was inoculated on the medium with microplanter (Toyo, Japan), and incubated at 35°-37° C. for 17±1 hours. The structures of Ceftazidime (CAZ) and Cefotaxime (CTX) which are used as control compounds are as follows: [drawing 12]

Ent. cloacae IFO 13535 = assay: MIC by agar dilution, Ent. cloacae IFO 13535; details: Enterobacter cloacae, IFO13535, 17 h; Ent. cloacae IFO 13535; agar dilution, Mueller-Hinton agar; read-out: Minimal Inhibitory Concentration (MIC)
Procedure: as §1

M. morganii DY-1 = assay: MIC by agar dilution, M. morganii DY-1; details: Morganella morganii, DY1, 17 h; M. morganii DY-1; agar dilution, Mueller-Hinton agar; read-out: Minimal Inhibitory Concentration (MIC)
Procedure: as §1

[1] = tested on: Ps. aeruginosa ATCC 10145; assay: MIC by agar dilution, Ps. aeruginosa ATCC 10145; details: Pseudomonas aeruginosa, ATCC10145, 17 h, Mueller-Hinton agar, read-out: Minimal Inhibitory Concentration (MIC)
Procedure: as §1

[2] = tested on: Ser. marcescens IFO 12648; assay: MIC by agar dilution, Ser. marcescens IFO 12648; details: Serratia marcescens, IFO12648, 17 h; Ser. marcescens IFO 12648; agar dilution, Mueller-Hinton agar; read-out: Minimal Inhibitory Concentration (MIC)
Procedure: as §1

E. coli DY-1 = assay: MIC by agar dilution, E. coli DY-1; details: Escherichia coli, DY1, 17 h; E. coli DY-1; agar dilution, Mueller-Hinton agar; read-out: Minimal Inhibitory Concentration (MIC)
Procedure: as §1

K. pneumoniae NCTC 9632 = assay: MIC by agar dilution, K. pneumoniae NCTC 9632; details: Klebsiella pneumoniae, NCTC9632, 17 h; K. pneumoniae NCTC 9632; agar dilution, Mueller-Hinton agar; read-out: Minimal Inhibitory Concentration (MIC)
Procedure: as §1

Prov. stuartii IFO 12930 = assay: MIC by agar dilution, Prov. stuartii IFO 12930; details: Providencia stuartii, IFO12930, 17 h, Mueller-Hinton agar, read-out: Minimal Inhibitory Concentration (MIC)
Procedure: as §1

[3] = tested on: Ps. aeruginosa NCTC 10490; assay: MIC by agar dilution, Ps. aeruginosa NCTC 10490; details: Pseudomonas aeruginosa, NCTC10490, 17 h, Mueller-Hinton agar, read-out: Minimal Inhibitory Concentration (MIC)
Procedure: as §1

[4] = tested on: S. epidermidis ATCC 12228; assay: MIC by agar dilution, S. epidermidis ATCC 12228; details: Staphylococcus epidermidis, ATCC12228, 17 h; S. epidermidis ATCC 12228; agar dilution, Mueller-Hinton agar; read-out: Minimal Inhibitory Concentration (MIC)
Procedure: as §1

Staph. aureus ATCC 6538P = assay: MIC by agar dilution, Staph. aureus ATCC 6538P; details: Staphylococcus aureus, ATCC6538P, 17 h; Staph. aureus ATCC 6538P; agar dilution, Mueller-Hinton agar; read-out: Minimal Inhibitory Concentration (MIC)
Procedure: as §1

E. coli No. 29 = assay: MIC by agar dilution, E. coli No. 29; details: Escherichia coli, 17 h; E. coli No. 29; agar dilution, Mueller-Hinton agar; read-out: Minimal Inhibitory Concentration (MIC)
Procedure: as §1

B. subtilis ATCC 6633 = assay: MIC by agar dilution, B. subtilis ATCC 6633; details: Bacillus subtilis, ATCC6633, 17 h; B. subtilis ATCC 6633; agar dilution, Mueller-Hinton agar; read-out: Minimal Inhibitory Concentration (MIC)
Procedure: as §1

P. vulgaris NCTC 8313 = assay: MIC by agar dilution, P. vulgaris NCTC 8313; details: Proteus vulgaris, NCTC8313, 17 h; P. vulgaris NCTC 8313; agar dilution, Mueller-Hinton agar; read-out: Minimal Inhibitory Concentration (MIC)
Procedure: as §1

Staph. aureus Smith = assay: MIC by agar dilution, Staph. aureus Smith; details: Staphylococcus aureus, 17 h, Mueller-Hinton agar, read-out: Minimal Inhibitory Concentration (MIC)
Procedure: as §1

Staph. aureus C-5216 = assay: MIC by agar dilution, Staph. aureus C-5216; details: Staphylococcus aureus, C5216, 17 h, Mueller-Hinton agar, read-out: Minimal Inhibitory Concentration (MIC)
Procedure: as §1

E. coli NIHJ JC-2 = assay: MIC by agar dilution, E. coli NIHJ JC-2; details: Escherichia coli, NIHJJC2, 17 h; E. coli NIHJ JC-2; agar dilution, Mueller-Hinton agar; read-out: Minimal Inhibitory Concentration (MIC)
Procedure: as §1

Staph. aureus C-5113 = assay: MIC by agar dilution, Staph. aureus C-5113; details: Staphylococcus aureus, C5113, 17 h, Mueller-Hinton agar, read-out: Minimal Inhibitory Concentration (MIC)
Procedure: as §1

Ps. aeruginosa DY-2 = assay: MIC by agar dilution, Ps. aeruginosa DY-2; details: Pseudomonas aeruginosa, DY2, 17 h; Ps. aeruginosa DY-2; agar dilution, Mueller-Hinton agar; read-out: Minimal Inhibitory Concentration (MIC)
Procedure: as §1

Staph. aureus C-57 = assay: MIC by agar dilution, Staph. aureus C-57; details: Staphylococcus aureus, C57, 17 h, Mueller-Hinton agar, read-out: Minimal Inhibitory Concentration (MIC)
Procedure: as §1

SMILES	MIC (Ent. aerogenes IFO 12979)	MIC (Ent. cloacae IFO 13535)	MIC (M. morganii DY-1)	MIC [1]	MIC [2]	MIC (E. coli DY-1)	MIC (K. pneumoniae NCTC 9632)	MIC (Prov. stuartii IFO 12930)	MIC [3]	MIC [4]	MIC (Staph. aureus ATCC 6538P)	MIC (E. coli No. 29)	MIC (B. subtilis ATCC 6633)	MIC (P. vulgaris NCTC 8313)	MIC (Staph. aureus Smith)	MIC (Staph. aureus C-5216)	MIC (E. coli NIHJ JC-2)	MIC (Staph. aureus C-5113)	MIC (Ps. aeruginosa DY-2)	MIC (Staph. aureus C-57)
CON=C(C(=O)NC1C(=O)N2C(C(=O)[O-])=C(C[n+]3ccn4c(C#N)ccc4c3)CSC12)c1csc(N)n1 (stereo not drawn) [Ex. 13, 7-β-[(Z)-2-(2-aminothiazol-4-yl)-2-methoxyiminoacetamido]-3-(6-cyanopyrrolo[1,2-a]pyrazinium-2-yl)methyl-3-cephem-4-carboxylate]	0.012 µg/mL (≈ 0.0223 µM)	0.05 µg/mL (≈ 0.0928 µM)	0.025 µg/mL (≈ 0.0464 µM)	0.78 µg/mL (≈ 1.45 µM)	0.012 µg/mL (≈ 0.0223 µM)	0.012 µg/mL (≈ 0.0223 µM)	0.025 µg/mL (≈ 0.0464 µM)	≤ 0.006 µg/mL	0.39 µg/mL (≈ 0.724 µM)	0.1 µg/mL (≈ 0.186 µM)	0.39 µg/mL (≈ 0.724 µM)	0.012 µg/mL (≈ 0.0223 µM)	0.2 µg/mL (≈ 0.371 µM)	≤ 0.006 µg/mL	1.56 µg/mL (≈ 2.9 µM)	0.78 µg/mL (≈ 1.45 µM)	0.012 µg/mL (≈ 0.0223 µM)	0.78 µg/mL (≈ 1.45 µM)	3.13 µg/mL (≈ 5.81 µM)	25 µg/mL (≈ 46.4 µM)
CON=C(C(=O)NC1C(=O)N2C(C(=O)[O-])=C(C[n+]3ccn4c([N+](=O)[O-])ccc4c3)CSC12)c1csc(N)n1 (stereo not drawn) [Ex. 14, 7-β-[(Z)-2-(2-aminothiazol-4-yl)-2-methoxyiminoacetamido]-3-(6-nitropyrrolo[1,2-a]pyrazinium-2-yl)methyl-3-cephem-4-carboxylate]	0.05 µg/mL (≈ 0.0895 µM)	0.78 µg/mL (≈ 1.4 µM)	0.05 µg/mL (≈ 0.0895 µM)	6.25 µg/mL (≈ 11.2 µM)	0.1 µg/mL (≈ 0.179 µM)	0.05 µg/mL (≈ 0.0895 µM)	0.05 µg/mL (≈ 0.0895 µM)	≤ 0.006 µg/mL	1.56 µg/mL (≈ 2.79 µM)	0.05 µg/mL (≈ 0.0895 µM)	0.39 µg/mL (≈ 0.698 µM)	0.05 µg/mL (≈ 0.0895 µM)	0.39 µg/mL (≈ 0.698 µM)	0.012 µg/mL (≈ 0.0215 µM)	1.56 µg/mL (≈ 2.79 µM)	1.56 µg/mL (≈ 2.79 µM)	0.1 µg/mL (≈ 0.179 µM)	3.13 µg/mL (≈ 5.6 µM)	25 µg/mL (≈ 44.8 µM)	25 µg/mL (≈ 44.8 µM)
CON=C(C(=O)NC1C(=O)N2C(C(=O)[O-])=C(C[n+]3ccn4c(C(N)=O)ccc4c3)CSC12)c1csc(N)n1 (stereo not drawn) [Ex. 15, 7-β-[(Z)-2-(2-aminothiazol-4-yl)-2-methoxyiminoacetamido]-3-(6-carbamoylpyrrolo[1,2-a]pyrazinium-2-yl)methyl-3-cephem-4-carboxylate]	≤ 0.006 µg/mL	0.1 µg/mL (≈ 0.18 µM)	≤ 0.006 µg/mL	0.39 µg/mL (≈ 0.701 µM)	0.012 µg/mL (≈ 0.0216 µM)	≤ 0.006 µg/mL	≤ 0.006 µg/mL	≤ 0.006 µg/mL	0.1 µg/mL (≈ 0.18 µM)	0.025 µg/mL (≈ 0.0449 µM)	0.2 µg/mL (≈ 0.359 µM)	≤ 0.006 µg/mL	0.05 µg/mL (≈ 0.0898 µM)	0.012 µg/mL (≈ 0.0216 µM)	0.39 µg/mL (≈ 0.701 µM)	0.78 µg/mL (≈ 1.4 µM)	≤ 0.006 µg/mL	0.78 µg/mL (≈ 1.4 µM)	3.13 µg/mL (≈ 5.62 µM)	12.5 µg/mL (≈ 22.5 µM)
CCON=C(C(=O)NC1C(=O)N2C(C(=O)[O-])=C(C[n+]3ccn4c(C(N)=O)ccc4c3)CSC12)c1csc(N)n1 (stereo not drawn) [Ex. 16, 7-β-[(Z)-2-(2-aminothiazol-4-yl)-2-ethoxyiminoacetamido]-3-(6-carbamoylpyrrolo[1,2-a]pyrazinium-2-yl)methyl-3-cephem-4-carboxylate]	0.025 µg/mL (≈ 0.0438 µM)	0.78 µg/mL (≈ 1.37 µM)	0.025 µg/mL (≈ 0.0438 µM)	1.56 µg/mL (≈ 2.73 µM)	0.1 µg/mL (≈ 0.175 µM)	0.025 µg/mL (≈ 0.0438 µM)	0.025 µg/mL (≈ 0.0438 µM)	0.025 µg/mL (≈ 0.0438 µM)	0.39 µg/mL (≈ 0.683 µM)	0.05 µg/mL (≈ 0.0876 µM)	0.2 µg/mL (≈ 0.351 µM)	0.05 µg/mL (≈ 0.0876 µM)	0.1 µg/mL (≈ 0.175 µM)	0.012 µg/mL (≈ 0.021 µM)	0.78 µg/mL (≈ 1.37 µM)	1.56 µg/mL (≈ 2.73 µM)	0.1 µg/mL (≈ 0.175 µM)	1.56 µg/mL (≈ 2.73 µM)	6.25 µg/mL (≈ 11 µM)	12.5 µg/mL (≈ 21.9 µM)
